Measured values reported in patent US6825354B2 (Wyeth Holdings Corporation, priority 1999, dated 2004).
Counter-ions that a name gives are not always drawn.

target: T1, MMP-1 (Homo sapiens, UniProt P03956); assay: MMP-1 inhibition, thiopeptide or fluorescent peptide substrate; assay type: biochemical; settings: Table 1, first part; read-out: MMP1 IC50
T1 sequence (P03956 100-469): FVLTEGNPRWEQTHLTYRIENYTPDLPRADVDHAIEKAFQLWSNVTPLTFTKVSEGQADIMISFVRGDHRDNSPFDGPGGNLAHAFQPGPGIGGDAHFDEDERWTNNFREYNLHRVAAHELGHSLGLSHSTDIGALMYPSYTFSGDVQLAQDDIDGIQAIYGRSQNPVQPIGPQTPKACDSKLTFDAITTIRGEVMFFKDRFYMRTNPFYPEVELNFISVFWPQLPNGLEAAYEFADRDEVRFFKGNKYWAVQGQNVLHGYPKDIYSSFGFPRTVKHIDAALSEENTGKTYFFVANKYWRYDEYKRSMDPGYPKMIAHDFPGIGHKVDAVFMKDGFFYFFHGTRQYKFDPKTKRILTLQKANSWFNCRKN
Description: The enzyme activity is measured by the rate of the color increase. The thiopeptide substrate is made up fresh as a 20 mM stock in 100% DMSO and the DTNB is dissolved in 100% DMSO as a 100 mM stock and stored in the dark at room temperature. Both the substrate and DTNB are diluted together to 1 mM with substrate buffer (50 mM HEPES pH 7.5, 5 mM CaCl2) before use. The stock of enzyme is diluted with buffer (50 mM HEPES, pH 7.5, 5 mM CaC12, 0.02% Brij) to the desired final concentration.
Alternatively, a fluorescent peptide substrate is used. In this test procedure, the peptide substrate contains a fluorescent group and a quenching group. Upon cleavage of the substrate by an MMP, the fluorescence that is generated is quantitated on the fluorescence plate reader. The assay is run in HCBC assay buffer (50 mM HEPES, pH 7.0, 5 mM Ca^+2, 0.02% Brij, 0.5% Cysteine), with human recombinant MMP-1, MMP-9, or MMP-13. The substrate is dissolved in methanol and stored frozen in 1 mM aliquots. For the assay, substrate and enzymes are diluted in HCBC buffer to the desired concentrations. Compounds are added to the 96 well plate containing enzyme and the reaction is started by the addition of substrate.
For either the thiopeptide or fluorescent peptide test procedures, the slope of the line is calculated and represents the reaction rate. […] The mean (x±sem) of the control rate is calculated and compared for statistical significance (p<0.05) with drug-treated rates using Dunnett's multiple comparison test.

Row | Compound | IC50
1 | 2-(4-But-2-ynyloxy-benzenesulfinyl)-6-[2-(3,4-dichloro-phenyl)-acetylamino]-hexanoic acid hydroxyamide [Example 57] | 4.6 µM
2 | 2-(4-But-2-ynyloxy-benzenesulfinyl)-6-(4-thiophen-2-yl-butyrylamino)-hexanoic acid hydroxyamide [Example 58] | 4.6 µM
3 | Quinoline-3-carboxylic Acid [5-(4-but-2-ynyloxy-benzenesulfinyl)-5-hydroxycarbamoyl-pentyl]-amide [Example 53] | 4 µM
4 | 9H-Xanthene-9-carboxylic acid [5-(4-but-2-ynyloxy-benzenesulfinyl)-5-hydroxycarbamoyl-pentyl]-amide [Example 59] | 3.4 µM
5 | 1-Methyl-1H-pyrrole-2-carboxylic acid {[5-(4-but-2-ynyloxy-benzenesulfinyl)-5-hydroxy-carbamoylpentyl-carbamoyl]-methyl}-amide [Example 61] | 5.6 µM
6 | N-[5-(4-But-2-ynyloxy-benzenesulfinyl)-5-hydroxycarbamoyl-pentyl]-2-phenethyl-benzamide [Example 56] | 3.9 µM

target: TNF-α converting enzyme (TACE) (Homo sapiens, UniProt P78536); assay: TACE inhibition, fluorescent peptidyl substrate; assay type: biochemical; settings: not given
Description: […] The reaction is initiated by addition of a fluorescent peptidyl substrate (final concentration 100 μM) to each well and then shaking on a shaker for 5 sec.
The reaction is read (excitation 340 nm, emission 420 nm) for 10 min. and the increase in fluorescence over time is plotted as a linear line. The slope of the line is calculated and represents the reaction rate.
The mean (x±sem) of the control rate is calculated and compared for statistical significance (p<0.05) with drug-treated rates using Dunnett's multiple comparison test.

TNF-α converting enzyme (TACE), sequence (P78536 215-824): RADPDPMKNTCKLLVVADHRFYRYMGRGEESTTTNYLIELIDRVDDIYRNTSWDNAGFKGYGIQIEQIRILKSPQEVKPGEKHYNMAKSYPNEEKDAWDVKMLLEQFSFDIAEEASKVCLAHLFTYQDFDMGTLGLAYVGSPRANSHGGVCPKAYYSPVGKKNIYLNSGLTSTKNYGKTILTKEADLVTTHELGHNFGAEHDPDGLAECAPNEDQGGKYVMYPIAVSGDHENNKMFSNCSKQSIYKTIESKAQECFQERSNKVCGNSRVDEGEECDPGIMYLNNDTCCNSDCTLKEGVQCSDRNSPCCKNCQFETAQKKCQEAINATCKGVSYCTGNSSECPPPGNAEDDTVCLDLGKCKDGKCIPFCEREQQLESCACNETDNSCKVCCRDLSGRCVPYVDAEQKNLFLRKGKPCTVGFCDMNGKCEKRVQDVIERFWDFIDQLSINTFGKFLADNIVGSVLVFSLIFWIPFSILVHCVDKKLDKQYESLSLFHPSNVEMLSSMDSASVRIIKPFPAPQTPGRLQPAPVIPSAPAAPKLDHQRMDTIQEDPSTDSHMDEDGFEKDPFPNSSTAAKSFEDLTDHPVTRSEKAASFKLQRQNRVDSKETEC

Row | Compound | IC50
7 | CC#CCOc1ccc([S+]([O-])[C@H](C(=O)NO)c2ccc(OC)cc2)cc1 (single isomer, unassigned) [Example 78] | 17.6 nM

same assay, conditions: Table 1, first part; read-out: TACE IC50

Row | Compound | IC50
8 | N-{[5-(4-But-2-ynyloxy-phenylsulfanyl)-5-hydroxy-carbamoyl-pentylcarbamoyl]-methyl}-2-phenethyl-benzamide [Example 46] | 84.2 nM
9 | 2-(4-But-2-ynyloxy-benzenesulfinyl)-6-[2-(3,4-dichloro-phenyl)-acetylamino]-hexanoic acid hydroxyamide [Example 57] | 24.4 nM
10 | 2-(4-But-2-ynyloxy-benzenesulfinyl)-6-(4-thiophen-2-yl-butyrylamino)-hexanoic acid hydroxyamide [Example 58] | 20.1 nM
11 | 2-(4-But-2-ynyloxy-benzenesulfinyl)-6-[2-(1,3-dioxo-1,3-dihydro-isoindol-2-yl)-acetylamino]-hexanoic acid hydroxyamide [Example 55] | 38.5 nM
12 | Quinoline-3-carboxylic Acid [5-(4-but-2-ynyloxy-benzenesulfinyl)-5-hydroxycarbamoyl-pentyl]-amide [Example 53] | 15.2 nM
13 | CC#CCOc1ccc(SC(CCCCNC(=O)CNC(=O)Cc2ccc(Cl)c(Cl)c2)C(=O)NO)cc1 (stereo not drawn) [Example 43, 2-(4-but-2-ynyloxy-phenylsulfanyl)-6-{2-[2-(3,4-dichloro-phenyl)-acetylamino]-acetylamino}-hexanoic acid hydroxyamide] | 32.5 nM
14 | 9H-Xanthene-9-carboxylic acid [5-(4-but-2-ynyloxy-benzenesulfinyl)-5-hydroxycarbamoyl-pentyl]-amide [Example 59] | 22.6 nM
15 | CC#CCOc1ccc(S(=O)(=O)C(CCCCNC(=O)CNC(=O)Cc2ccc(Cl)c(Cl)c2)C(=O)NO)cc1 (stereo not drawn) [Example 65, 2-(4-But-2-ynyloxy-benzenesulfonyl)-6-{2-[2-(3,4-dichloro-phenyl)-acetylamino]-acetylamino}-hexanoic acid hydroxyamide] | 52.1 nM
16 | 1-Methyl-1H-pyrrole-2-carboxylic acid {[5-(4-but-2-ynyloxy-benzenesulfinyl)-5-hydroxy-carbamoylpentyl-carbamoyl]-methyl}-amide [Example 61] | 22.5 nM
17 | N-[5-(4-But-2-ynyloxy-benzenesulfinyl)-5-hydroxycarbamoyl-pentyl]-2-phenethyl-benzamide [Example 56] | 21.9 nM
18 | N-[5-(4-But-2-ynyloxy-phenylsulfanyl)-5-hydroxycarbamoyl-pentyl]-2-phenethyl-benzamide [Example 15] | 138 nM
19 | Quinoline-2-carboxylic acid [5-(4-but-2-ynyloxy-benzenesulfinyl)-5-hydroxycarbamoyl-pentyl]-amide [Example 54] | 27.2 nM
20 | CC#CCOc1ccc([S+]([O-])C(CCCCNC(=O)c2nccc3ccccc23)C(=O)NO)cc1 (stereo not drawn) [Example 31, Isoquinoline-1-carboxylic acid [5-(4-but-2-ynyloxy-benzenesulfinyl)-5-hydroxycarbamoyl-pentyl]-amide] | 28.3 nM
21 | CC#CCOc1ccc(S(=O)(=O)C(CCCCNC(=O)Cc2ccc(Cl)c(Cl)c2)C(=O)NO)cc1 (stereo not drawn) [Example 37, 2-(4-But-2-ynyloxy-benzenesulfonyl)-6-[2-(3,4-dichloro-phenyl)-acetylamino]-hexanoic acid hydroxyamide] | 43.7 nM

same assay, conditions: Table 1, second part; footnote a: % @ 10 μM

Row | Compound | TACE % @ 10 μM
22 | CC#CCOc1ccc(S(=O)(=O)C(C(=O)NO)c2ccc(-c3cccs3)cc2)cc1 (stereo not drawn) [Example 91, 2-{[4-(2-butynyloxy)phenyl]sulfonyl}-N-hydroxy-2-[4-(2-thienyl)phenyl]acetamide] | 48%
23 | CC#CCOc1ccc(SC(C(=O)NO)c2ccc3ccccc3c2)cc1 (stereo not drawn) [Example 114, 2-{[4-(2-Butynyloxy)phenyl]sulfanyl}-2-(2-naphthyl)-N-hydroxyacetamide] | 40.90%

same assay, conditions: Table 1, second part; footnote a: IC50 (nM); read-out: TACE IC50

Row | Compound | IC50
24 | CC#CCOc1ccc(SC(C(=O)NO)c2ccc(F)cc2)cc1 (stereo not drawn) [Example 95] | 108 nM
25 | CC#CCOc1ccc([S+]([O-])[C@@H](C(=O)NO)c2ccc(-c3cccs3)cc2)cc1 (stereo partly drawn) [Example 90, (2R)-2-{[4-(2-butynyloxy)phenyl]sulfinyl}-N-hydroxy-2-[4-(2-thienyl)phenyl]ethanamide] | 682 nM

test system: not given; assay: not given; settings: not given

Row | Compound | melting point
26 | CC#CCOc1ccc(S(=O)(=O)C(C)(Cc2ccc(-c3ccccc3)cc2)C(=O)NO)cc1 (stereo not drawn) [Example 2, 3-Biphenyl-4-yl-2-(4-Buty-2-ynyloxy-phenylsulfonyl)-N-hydroxy-2-methyl-propionamide] | 92 to 94 °C
27 | CC#CCOc1ccc([S@@+]([O-])[C@@H](CCCCCC)C(=O)NO)cc1 [Example 8, (S)-2-[(S)-[4-(2-Butynyloxy)phenylsulfinyl)]-N-hydroxyoctanamide] | 112.2 °C
28 | CC#CCOc1ccc(S(=O)(=O)C(C(=O)NO)C2CCN(C(C)=O)CC2)cc1 (stereo not drawn) [Example 121, 2-(1-acetyl-4-piperidinyl)-2-{[4-(2-butynyloxy)phenyl]sulfonyl}-N-hydroxyacetamide] | 103 °C
29 | CC#CCOc1ccc(OCCCC(=O)NO)cc1 [Example 10, 4-(4-But-2-ynyloxy-phenoxy)-N-hydroxy-butyramide] | 123 to 125 °C
30 | CC#CCOc1ccc(SC(CCCCCC)C(=O)NO)cc1 (stereo not drawn) [Example 6, 2-(4-But-2-ynyloxy-phenylsulfanyl)-octanoic Acid Hydroxamide] | 125 °C
31 | CC#CCOc1ccc(S(=O)(=O)C(C(=O)NO)C2CCSCC2)cc1 (stereo not drawn) [Example 123, 2-{[4-(2-Butynyloxy)phenyl]sulfonyl}-N-hydroxy-2-tetrahydro-2H-thiopyran-4yl-acetamide] | 175 to 177 °C
32 | CC#CCOc1ccc(S(=O)(=O)C(C)(Cc2cccnc2)C(=O)NO)cc1 (stereo not drawn) (as salt: hydrochloride) [Example 3, 2-(4Buty-2-ynyloxy-phenylsulfonyl)-N-hydroxy-2-methyl-3-pyridin-3-ylpropionamide] | 154 to 156 °C
33 | CC#CCOc1ccc(S(=O)(=O)C(C)(Cc2ccc(OCCN3CCCCC3)cc2)C(=O)NO)cc1 (stereo not drawn) (as salt: hydrochloride) [Example 1, 2-(4-But-2-ynyloxy-benzenesulfonyl)-N-hydroxy-2-methyl-3-[4-(2-piperidin-1-yl-ethoxy)-phenyl]-propionamide] | 114 to 116 °C
34 | CC#CCOc1ccc(OCC(=O)NO)cc1 [Example 11, 2-(4-But-2-ynyloxy-phenoxy)-N-hydroxy-acetamide] | 130 to 132 °C
35 | CC#CCOc1ccc(SC(C)C(=O)NO)cc1 (stereo not drawn) [Example 4, 2-(4-Buty-2-ynyloxy-phenylsulfanyl)-N-hydroxy-propionamide] | 102 to 104 °C
36 | CC#CCOc1ccc(OCCC(=O)NO)cc1 [Example 9, 3-(4-But-2-ynyloxy-phenoxy)-N-hydroxy-propionamide] | 116 to 118 °C
